Source: US12123010B2, “Plants having increased tolerance to herbicides” (BASF SE, priority 2017, dated 2024)

Assays:
[1] = tested on: Transgenic T2 Arabidopsis plants harboring PPO inhibitor tolerance trait; experiment: Lab based germination assay in 48-well plates (Table i); format: in vivo, Arabidopsis thaliana; conditions: construct AMATU_PPO2_TP_hemG (Escherichia coli); in comparison to wild type plants
[2] = target: Wild Type PPO Enzyme (Amaranthus PPO2, SEQ ID NO: 1) (Amaranthus tuberculatus, UniProt Q0NZW9); experiment: PPO enzyme assay (recombinant), wild type; format: biochemical
Sequence of Wild Type PPO Enzyme (Amaranthus PPO2, SEQ ID NO: 1) (Q0NZW9 1-534): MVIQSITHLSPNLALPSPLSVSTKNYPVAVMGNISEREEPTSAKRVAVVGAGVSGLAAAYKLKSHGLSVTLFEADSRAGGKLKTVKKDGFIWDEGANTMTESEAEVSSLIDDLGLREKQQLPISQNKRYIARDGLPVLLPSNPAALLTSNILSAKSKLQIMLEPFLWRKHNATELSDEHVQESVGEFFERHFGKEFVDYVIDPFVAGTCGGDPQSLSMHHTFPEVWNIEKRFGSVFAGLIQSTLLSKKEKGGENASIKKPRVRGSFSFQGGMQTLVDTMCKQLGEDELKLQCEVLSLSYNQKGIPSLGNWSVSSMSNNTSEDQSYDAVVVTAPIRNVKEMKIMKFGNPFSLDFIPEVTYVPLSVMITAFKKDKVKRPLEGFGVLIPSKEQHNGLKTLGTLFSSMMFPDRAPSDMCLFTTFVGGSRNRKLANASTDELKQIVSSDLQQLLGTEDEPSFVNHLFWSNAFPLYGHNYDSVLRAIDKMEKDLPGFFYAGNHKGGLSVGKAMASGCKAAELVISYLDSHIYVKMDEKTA

[3] = tested on: Transgenic T2 Arabidopsis plants and ARBTH WT MC24 non-transgenic; experiment: Greenhouse post spray test, injury 14 DAT (Tables ii, iii); format: in vivo, Arabidopsis thaliana; conditions: Arabidopsis thaliana, 336 h, Table ii; for pest or weed control at 50 g/ha: 50 g ai/ha; for pest or weed control at 100 g/ha: 100 g ai/ha; for pest or weed control at 200 g/ha: 200 g ai/ha;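 on all read-outs here: value is percent injury to the sprayed plants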
[4] = tested on: Variant PPO Enzyme F420M (Amaranthus PPO2); experiment: biochemical; format: biochemical; conditions: variant F420M vs wild type
[5] = tested on: Variant PPO Enzyme R128A, F420V (Amaranthus PPO2); experiment: biochemical; format: biochemical; conditions: variant R128A, F420V vs wild type
[6] = tested on: Variant PPO Enzyme L397E, F420M (Amaranthus PPO2); format: biochemical; conditions: variant L397E, F420M vs wild type
[7] = tested on: Variant PPO Enzyme R128A, F420M (Amaranthus PPO2); format: biochemical; conditions: variant R128A, F420M vs wild type
[8] = AMATU_PPO2_WT event Q, 1 g ai/ha
[9] = AMATU_PPO2_WT event Q, 5 g ai/ha
[10] = AMATU_PPO2_WT event Q, 10 g ai/ha
[11] = AMATU_PPO2_WT event Q, 30 g ai/ha
[12] = ARBTH WT MC24 non-transgenic, 1 g ai/ha + 1% MSO
[13] = ARBTH WT MC24 non-transgenic, 5 g ai/ha + 1% MSO
[14] = ARBTH WT MC24 non-transgenic, 10 g ai/ha + 1% MSO
[15] = ARBTH WT MC24 non-transgenic, 30 g ai/ha + 1% MSO
[16] = ARBTH WT MC24 non-transgenic, 80 g ai/ha + 1% MSO
[17] = ARBTH_PPO1_S305L_Y426M event O, 5 g ai/ha
[18] = ARBTH_PPO1_S305L_Y426M event O, 10 g ai/ha
[19] = ARBTH_PPO1_S305L_Y426M event O, 30 g ai/ha
[20] = ARBTH_PPO1_S305L_Y426M event O, 80 g ai/ha
[21] = ARBTH_PPO1_WT event Q, 1 g ai/ha
[22] = ARBTH_PPO1_WT event Q, 5 g ai/ha
[23] = ARBTH_PPO1_WT event Q, 10 g ai/ha
[24] = ARBTH_PPO1_WT event Q, 30 g ai/ha

Row | Structure (SMILES) | Tolerance Factor [1] | IC50 [2] [nM] | pest or weed control at 1 g/ha [3, 8] [%] | pest or weed control at 5 g/ha [3, 9] [%] | pest or weed control at 10 g/ha [3, 10] [%] | pest or weed control at 30 g/ha [3, 11] [%] | pest or weed control at 1 g/ha [3, 12] [%] | pest or weed control at 5 g/ha [3, 13] [%] | pest or weed control at 10 g/ha [3, 14] [%] | pest or weed control at 30 g/ha [3, 15] [%] | pest or weed control at 80 g/ha [3, 16] [%] | pest or weed control at 5 g/ha [3, 17] [%] | pest or weed control at 10 g/ha [3, 18] [%] | pest or weed control at 30 g/ha [3, 19] [%] | pest or weed control at 80 g/ha [3, 20] [%] | pest or weed control at 1 g/ha [3, 21] [%] | pest or weed control at 5 g/ha [3, 22] [%] | pest or weed control at 10 g/ha [3, 23] [%] | pest or weed control at 30 g/ha [3, 24] [%] | other results
1 | CCOC(=O)COc1ccccc1Oc1nc(-n2c(=O)cc(C(F)(F)F)n(C)c2=O)c(F)cc1F [Uracilpyridine 8, ethyl 2-[2-[[3,5-difluoro-6-[3-methyl-2,6-dioxo-4-(trifluoromethyl)pyrimidin-1-yl]-2-pyridyl]oxy]phenoxy]acetate] | 8202 | 0.496 | 10 | 55 | 100 | 100 | 88 | 100 | 100 | 100 | 100 | 0 | 0 | 0 | 0 | 10 | 30 | 55 | 100 | Tolerance Factor (R/S) [4]: 139; Tolerance Factor (R/S) [5]: 4531
2 | Cn1c(C(F)(F)F)cc(=O)n(-c2nc(Oc3ccccc3OCC(=O)O)c(F)cc2F)c1=O [Uracilpyridine 9, 2-[2-[[3,5-difluoro-6-[3-methyl-2,6-dioxo-4-(trifluoromethyl)pyrimidin-1-yl]-2-pyridyl]oxy]phenoxy]acetic acid] | 1600 | – | 38 | 68 | 100 | 100 | 85 | 100 | 100 | 100 | 100 | 0 | 0 | 0 | 0 | 10 | 50 | 70 | 98 | –
3 | Cn1c(C(F)(F)F)cc(=O)n(-c2nc(Oc3ccccc3OCC(=O)NS(C)(=O)=O)c(Cl)cc2F)c1=O [Uracilpyridine 10, 2-[2-[[3-chloro-5-fluoro-6-[3-methyl-2,6-dioxo-4-(trifluoromethyl)pyrimidin-1-yl]-2-pyridyl]oxy]phenoxy]-N-methylsulfonyl-acetamide] | – | 0.212 | 58 | 100 | 100 | 100 | 100 | 100 | 100 | 100 | 100 | 10 | 8 | 99 | 99 | 50 | 98 | 100 | 100 | Tolerance Factor (R/S) [6]: 30714; pest or weed control at 50 g/ha ([3]; ALOMY_PPO2_R137L_F438V event F): 0%; pest or weed control at 100 g/ha ([3]; ALOMY_PPO2_R137L_F438V event F): 8%; pest or weed control at 200 g/ha ([3]; ALOMY_PPO2_R137L_F438V event F): 10%; pest or weed control at 50 g/ha ([3]; ALOMY_PPO2_R137L_F438V event G): 0%; pest or weed control at 100 g/ha ([3]; ALOMY_PPO2_R137L_F438V event G): 0%; pest or weed control at 200 g/ha ([3]; ALOMY_PPO2_R137L_F438V event G): 5%; pest or weed control at 50 g/ha ([3]; AMATU_PPO2_L397E_F420V event D): 0%; pest or weed control at 100 g/ha ([3]; AMATU_PPO2_L397E_F420V event D): 5%; pest or weed control at 200 g/ha ([3]; AMATU_PPO2_L397E_F420V event D): 13%; pest or weed control at 50 g/ha ([3]; AMATU_PPO2_L397E_F420V event L): 8%; pest or weed control at 100 g/ha ([3]; AMATU_PPO2_L397E_F420V event L): 53%; pest or weed control at 200 g/ha ([3]; AMATU_PPO2_L397E_F420V event L): 20%; pest or weed control at 50 g/ha ([3]; AMATU_PPO2_R128A_F420V event A): 38%; pest or weed control at 100 g/ha ([3]; AMATU_PPO2_R128A_F420V event A): 53%; pest or weed control at 200 g/ha ([3]; AMATU_PPO2_R128A_F420V event A): 68%; pest or weed control at 50 g/ha ([3]; AMATU_PPO2_R128A_F420V event D): 30%; pest or weed control at 100 g/ha ([3]; AMATU_PPO2_R128A_F420V event D): 78%; pest or weed control at 200 g/ha ([3]; AMATU_PPO2_R128A_F420V event D): 88%; Tolerance Factor (R/S) [7]: 7879
